Measurements from publication PMC5773487, “Harnessing insulin- and leptin-induced oxidation of PTP1B for therapeutic development” (Nature Communications, 2018).
“Also recorded” adds a separate entry of the source.

T1: reduced PTP1B (Homo sapiens, UniProt P18031)
T1 construct: Purified PTP1B (1–321) (100 nM) was mixed with increasing concentrations of H2O2; 6xHis (C); made in house; host or cells: E. coli BL21 (DE3)-RIL
T1 sequence (P18031 1-321): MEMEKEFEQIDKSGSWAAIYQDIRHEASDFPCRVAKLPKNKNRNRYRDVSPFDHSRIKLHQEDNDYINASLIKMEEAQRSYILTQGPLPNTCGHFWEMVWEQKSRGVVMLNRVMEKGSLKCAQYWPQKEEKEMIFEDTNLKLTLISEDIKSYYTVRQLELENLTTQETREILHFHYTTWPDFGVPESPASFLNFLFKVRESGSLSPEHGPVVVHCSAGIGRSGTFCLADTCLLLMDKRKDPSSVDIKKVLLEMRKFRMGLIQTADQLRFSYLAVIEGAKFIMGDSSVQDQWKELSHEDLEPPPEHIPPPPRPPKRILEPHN

T2: oxidized PTP1B-mut2 (L37F/K39E/K41R) (Homo sapiens, UniProt P18031, K39E/K41R/L37F)
T2 construct: PTP1B (1–321) and TCPTP (1–317) cloned in pET21b vector were used as templates; 6xHis (C); made in house; host or cells: E. coli BL21 (DE3)-RIL
T2 sequence (P18031 1-321 L37F/K39E/K41R): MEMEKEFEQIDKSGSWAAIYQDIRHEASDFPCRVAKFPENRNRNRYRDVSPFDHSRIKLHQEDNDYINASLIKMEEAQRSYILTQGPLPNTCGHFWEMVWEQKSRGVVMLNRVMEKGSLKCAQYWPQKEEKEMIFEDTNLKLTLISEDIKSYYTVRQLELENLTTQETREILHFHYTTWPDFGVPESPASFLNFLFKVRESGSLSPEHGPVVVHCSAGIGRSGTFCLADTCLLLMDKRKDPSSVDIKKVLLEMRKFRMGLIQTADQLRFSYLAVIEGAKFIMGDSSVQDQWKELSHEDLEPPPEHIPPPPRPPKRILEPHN


Tests used:
reduced PTP1B = biological target: T1, reduced PTP1B; test: phosphatase activity of reduced PTP1B, DiFMUP substrate; format: biochemical
Procedure: Fig. 4 Identification and characterization of small molecules that mimic the effect of scFv45. a Reversibly oxidized PTP1B (PTP1B-OX) was generated by incubation with H2O2 in vitro, desalted, then assayed (20 nM) in the presence and absence of individual members of the LOPAC library. In the right panel, each dot represents an activity measurement. […] Data are representative of at least two independent experiments (n = 2). b Increasing concentration of sanguinarine was tested against reduced (circle) and oxidized (square) forms of PTP1B, using DiFMUP as substrate. c Increasing concentration of levamisole was tested against reduced (circle) and oxidized (square) PTP1B, using DiFMUP as substrate. d PTP1B-OX (200 nM) was incubated with sanguinarine (25 µM) for 5 min and the complex was diluted 100-fold and the activity was monitored for 120 min continuously. e PTP1B-OX (200 nM) was incubated with levamisole (40 µM) for 5 min and the complex was diluted 100-fold and the activity was monitored for 120 min continuously. f Increasing concentration of chelerythrine, an analog of sanguinarine, was tested against reduced (circle) and oxidized (square) forms of PTP1B, using DiFMUP as substrate. […] Individual data points represent the mean obtained from three separate experiments (n = 3; b–g)
Purified PTP1B (1–321) (100 nM) was mixed with increasing concentrations of H2O2 (0.05–100 mM) in phosphatase assay buffer (50 mM HEPES, pH 7.0, 100 mM NaCl, 0.1% BSA) at room temperature for 5 min. From this reaction mixture PTP1B (10 nM) was used to monitor phosphatase activity using DiFMUP as the substrate, with or without 5 mM TCEP. Activity of each sample was compared to that of the untreated PTP1B in the presence of 5 mM TCEP.

[1] = biological target: T2, oxidized PTP1B-mut2 (L37F/K39E/K41R); test: reduction and reactivation of oxidized PTP1B-mut2, DiFMUP, TCEP; format: biochemical; conditions: TCEP 5 mM
Procedure: Fig. 1 Molecular characterization of PTP1B-scFv45 interaction. a Overlay of PTP1B (gray) and TCPTP (pale blue) crystal structures, highlighting residues that are changed in generating mutant forms (-mut1 and -mut2) of the enzymes. b Increasing concentrations of recombinant HA-tagged scFv45 were incubated with oxidized wild-type (-wt) or mutant (-mut) forms of PTP1B (top panel) and oxidized wild-type or mutant forms of TCPTP (bottom panel). The protein complexes were precipitated with anti-HA-agarose beads and equivalent amounts of input, supernatant, and eluate were subjected to immunoblot analysis. Data are representative of at least three independent experiments (n = 3). c Michaelis–Menten plots for wild-type (circle), -mut1 (square), or -mut2 (triangle) forms of PTP1B (left) and TCPTP (right) are shown. […] Individual data points represent the mean obtained from three separate experiments (n = 3). d Wild-type and mutant forms of PTP1B were incubated with increasing concentrations of H2O2 and phosphatase activity was measured using DiFMUP in the absence (black bar) and presence (gray bar) of the reducing agent TCEP (5 mM). e Oxidized PTP1B-wt (circle), PTP1B-mut1 (square), or PTP1B-mut2 (triangle) were incubated with increasing concentration of scFv45 (0–1000 nM) and phosphatase activity was measured using DiFMUP as substrate in the presence of the reducing agent TCEP (5 mM). […]

Molecule | inhibition of the reduced form of PTP1B (reduced PTP1B) | inhibition of reduction and reactivation of oxidized PTP1B-mut2 [1]
CN1CCc2cc3c(cc2C(=O)Cc2ccc4c(c2C1)OCO4)OCO3 [protopine] | did not inhibit; also recorded: ineffective | –
COc1ccc2c(c[n+](C)c3c4cc5c(cc4ccc23)OCO5)c1OC [chelerythrine] | no apparent inhibition; also recorded: did not inhibit | unable to inhibit; also recorded: insensitive
scFv45: recombinant conformation-sensor single-chain variable fragment antibody recognizing oxidized PTP1B (antibody, V domains shown) VH: TVTLDESGGGLQAPGGALSLVCKASGFTFSSYDMGWIRQAPGKGLEYVAGITDNGRYASYGSAVDGRATISRDNGQSSVRLQLNNLRAEDTGTYYCARDDGSGWTGNSIDAWGHGTEVIVSE VL: ALTQPSSVSANPGGTVKITCSGSSSAYGYGWYQQKSPGSAPVTVIYNNNKRPSNIPSRFSGSKSGSTGTLTITGVQAEDEAVYFCGSEDSSTDAIFGAGTTLTVL | – | did not attenuate
